Data published in patent publication US6689803B2, “Compositions and methods for treating surgical adhesions” (Angiotech Pharmaceuticals, Inc., priority 1996, dated 2004).
Like-named read-outs stand apart in the source and are kept apart here.

Assays:
LNCaP cells = assay: LNCaP cell growth (crystal violet); assay type: cell-based, human; settings: inferred from toxicity at 0.001 nM
Experimental: LNCaP cells were seeded at concentrations of 2×10^3 and 1×10^3 cells/well respectively in 96 well plates. […] After incubation, the cells were fixed with 1% glutaraldehyde solution, and stained for 5 minutes with 0.5% crystal violet. The dye was successively eluted with 100 μl of buffer solution and the absorbance was read on a Titertek Multiskan microplate reader using a wavelength of 492 nm Absorbance. Cell growth was expressed as a percentage relative to control wells in the absence of the compound (set at 100%).

[1] = tested on: restenosis / intimal hyperplasia; assay: Rat carotid artery balloon injury model of restenosis, perivascular treatment; assay type: in vivo; settings: 10% camptothecin-loaded EVA film, 14 days, two animals
Experimental: WISTAR rats weighing 250 to 300 g were anesthetized by the intramuscular injection of Innovar (0.33 ml/kg). Once sedated they were then placed under Halothane anesthesia After general anesthesia was established, fur over the neck region was shaved, the skin clamped and swabbed with betadine. A vertical incision was made over the left carotid artery and the external carotid artery exposed. Two ligatures were placed around the external carotid artery and a transverse arteriotomy was made. […] The endothelium was denuded by passing the inflated balloon up and down the carotid artery three times. The catheter was then removed and the ligature tied off on the left external carotid artery. […] The wound was then closed.

[2] = tested on: chick chorioallantoic membrane (CAM) vasculature; settings: PCL paste (3 mg)
NF-κB = NF-κB activity (cell-based) reporter assay in NIH-3T3; parameters: species or system murine; settings: 6-hour and 24-hour treatments
Experimental: IL-1 and TNF were both identified as being proinflammatory cytokines that activate the transcription of genes driven by a transcription factor named NF-κB also involved in inflammatory processes. The inflammatory effect of IL-1 and TNF can therefore be indirectly assessed by means of a reporter gene assay (NF-κB) responding to IL-1 and TNF stimulation.
On day one, 5×10^4 NIH-3T3 (murine fibroblast), stably transfected with a NF-κB reporter construct (Luciferase, Promega Corp.), were plated per well (24-well plate). Once confluent (on day 3-4), cells were starved by replacing the complete medium with 1 ml of serum-free medium. Following a 24-hour starvation, cells were treated with various concentrations of anti-microtubule agents 6 hours prior to the addition of IL-1 (20 ng/ml) and TNF (20 ng/ml). Cells were exposed to IL-1 and TNF for 1 hour and 16 hours and NF-κB activity measured 24 hours later. On day five, the medium was discarded and the cells were rinsed once with PBS. Cells were then extracted for 15 minutes with 250 μl of lysis buffer (Promega Corp., Wisconsin). NF-κB transcriptional activity was assessed by adding 25 μl of luciferase substrate to a tube containing 2.5 μl of cell extract. The tube was immediately inserted in a luminometer (Turner Designs) and light emission measured for 10 seconds. The luciferase data were then normalized for protein concentration.

aggrecan mRNA = assay: Expression of proteoglycan (aggrecan) in chondrocytes; assay type: cell-based, calf; settings: all concentrations evaluated (10^−7 M to 10^−4 M)
Experimental: Primary chondrocyte cultures were freshly isolated from calf cartilage. The cells were plated at 2.5×10^6 per ml in 100×20 mm culture dishes and incubated in Ham's F12 medium containing 5% FBS overnight at 37° C. The cells were starved in serum-free medium overnight and then treated with anti-microtubule agents at various concentrations (10^−7 M, 10^−6 M, 10^−5 M and 10^−4 M) for 6 hours. […] Total RNA was isolated by the acidified guanidine isothiocyanate method and subjected to electrophoresis on a denatured gel. […] The exposed films were scanned and quantitatively analyzed with ImageQuant.

synoviocytes = assay: Proliferation assay (MTT); assay type: cell-based; settings: 24-hour exposure
Experimental: On day one, 5-10×10^4 synoviocytes were plated per well (96-well plate). Column #1 was kept free of cells (blank). On day 2, the plate was flicked to discard the medium and 200 μl of medium containing various concentrations of drug was added. […] There was no drug added to columns #1 and #2 (blank and untreated control, respectively). The medium containing the drug was discarded and 200 μl of fresh complete medium was added. The cells were then left to grow for an additional 3 to 4 days. On day five, 20 μl of dimethylthiazol diphenyltetrazolium bromide salt (MTT) (5 mg/ml PBS) was added and allowed to incubate for 4 hours at 37° C. The medium was decanted and 200 μl of DMSO was added.
The data were expressed as the % of survival which was obtained by dividing the number of cells remaining after treatment by the number of cells in the untreated control column #2 (the number of cells was obtained from a standard done prior to the assay).

collagenase (MMP-1) mRNA = assay: IL-1 induced collagenase mRNA expression in chondrocytes (Northern blot); assay type: cell-based, calf; settings: pre-incubation 6 hours, IL-1 20 ng/ml 18 hours
Experimental: Total RNA was isolated, and the MMP-1 mRNA levels were determined by Northern blot analysis. The blots were subsequently stripped and reprobed with ^32P-radiolabeled rat GAPDH cDNA, which was used as a housekeeping gene. The results shown are representative of four independent experiments. Quantitation of collagenase-1 and stromelysin-expression mRNA levels. The MMP-1 and MMP-3 expression levels were normalized with GAPDH.
Primary chondrocyte cultures were freshly isolated from calf cartilage. The cells were plated at 2.5×10^6 per ml in 100×20 mm culture dishes and incubated in Ham's F12 medium containing 5% FBS overnight at 37° C. […] IL-1 (20 ng/ml) was then added to each plate and the plates incubated for an additional 18 hours. Total RNA was isolated by the acidified guanidine isothiocyanate method and subjected to electrophoresis on a denatured gel. Denatured RNA samples (15 μg) were analyzed by gel electrophoresis in a 1% denatured gel, transferred to a nylon membrane and hydridized with the ^32P-labeled collagenase cDNA probe. ^32P-labeled glyceraldehyde phosphate […] (GAPDH) cDNA as an internal standard to ensure roughly equal loading. The exposed films were scanned and quantitatively analyzed with ImageQuant.

SMILES | EC50 (LNCaP cells) | intimal hyperplasia [1] | Inhibition/n ([2]; 0.25%) | Inhibition/n ([2]; 1%) | Inhibition/n ([2]; 5%) | inhibitory effect on IL-1- and TNF-induced NF-κB activity (NF-κB) | expression of aggrecan (aggrecan mRNA) | IC50 (synoviocytes) [nM] | prevented IL-1-induced collagenase expression at concentrations as low as (collagenase (MMP-1) mRNA) [nM]
CC[C@@]1(O)C(=O)OCc2c1cc1n(c2=O)Cc2cc3ccccc3nc2-1 [camptothecin] | femtomolar concentration range | completely inhibited intimal hyperplasia | ¾ | ⅔ | ⅘ | – | – | – | –
Nc1ncnc2c1ccn2[C@@H]1O[C@H](CO)[C@@H](O)[C@H]1O [tubercidin, 7-deazaadenosine] | – | – | – | ⅓ | ⅔ | around 10 μM | did not affect the expression of aggrecan | ~45 | 100
